Test results published in publication PMC5472792, “Bub1 positions Mad1 close to KNL1 MELT repeats to promote checkpoint signalling” (Nature Communications, 2017).
Square brackets hold non-standard residues; d marks the D form. Peptide text beside a SMILES is read from it. * marks the point of attachment. Biotin = O=C1N[C@H]2[C@H](CS[C@H]2CCCCC(=O)*)N1; pT = C[C@@H](OP(=O)(O)O)[C@H](N)C(=O)O; Nle = CCCC[C@H](N)C(=O)O

Target: T1, Mad1 597–718 Glu710Ala/Phe712Ala (Homo sapiens, UniProt Q9Y6D9, E710A/F712A)
T1 construct: His; Strep; made in house; host or cells: E. coli BL21(DE3) (stated for the wild-type construct)
T1 sequence (Q9Y6D9 597-718 E710A/F712A): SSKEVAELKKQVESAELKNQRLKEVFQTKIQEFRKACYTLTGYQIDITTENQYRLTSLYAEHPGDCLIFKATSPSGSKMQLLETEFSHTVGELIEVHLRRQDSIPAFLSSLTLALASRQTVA
Assay: SPR, binding of CD1 peptide to Mad1 597–718 Glu710Ala/Phe712Ala
Conditions: steady state, similar to Fig. 4
Text: To investigate this, we first tested the role of these Mad1 residues in binding Bub1. We measured the ability of recombinant Mad1 (597–718) Glu710Ala/Phe712Ala to bind the CD1 peptide phosphorylated on Thr461. […] This argues that Mad1 has an important function in the checkpoint in addition to interacting with Mad2 and Bub1.
Figure 6 Residues in Mad1 are important for SAC function but not Bub1 binding. (a) SPR steady-state responses for pT461 Bub1 CD1 peptides to purified Mad1 597–718 Glu710Ala/Phe712Ala protein similar to Fig. 4. (b) Nocodazole arrested stable HeLa cell lines expressing Mad1-BirA or mutants were treated with biotin as indicated and biotinylated proteins were isolated. The samples were analysed for the presence of KNL1, Bub1 and BubR1 by western blot. Mad1-BirA (WT), Mad1(EFR/AAA)-BirA and Mad1 (RLK/AAA)-BirA. Representative of two independent experiments. […] Live cell imaging and quantification were performed as in Fig. 5a. […] The number of cells analysed per condition is indicated above. […]
Bub1 peptides were purchased from Biosyntan Gmbh (Germany). The purity obtained in the synthesis was 95–98% as determined by high-performance liquid chromatography (HPLC) and the identity of the peptides was confirmed by mass spectrometry. […] Sensorgrams were analysed after double referencing. […]

SMILES: CCCC[C@H](NC(=O)[C@H](CC(N)=O)NC(=O)[C@H](CCCC)NC(=O)[C@@H](NC(=O)[C@H](Cc1ccccc1)NC(=O)CNC(=O)[C@H](CC(C)C)NC(=O)[C@H](C)NC(=O)[C@H](CCC(=O)O)NC(=O)[C@H](CCCCN)NC(=O)[C@@H](NC(=O)[C@H](Cc1c[nH]cn1)NC(=O)[C@@H](NC(=O)[C@@H](NC(=O)[C@@H]1CCCN1C(=O)[C@H](CO)NC(=O)[C@@H]1CCCN1C(=O)[C@H](CCC(N)=O)NC(=O)[C@@H](NC(=O)[C@H](CCCCN)NC(=O)[C@H](CO)NC(=O)[C@@H]1CCCN1C(=O)[C@@H](NC(=O)[C@H](C)NC(=O)[C@H](CCC(N)=O)NC(=O)[C@@H](NC(=O)CCCC[C@@H]1SC[C@@H]2NC(=O)N[C@@H]21)C(C)C)[C@@H](C)O)C(C)C)[C@@H](C)OP(=O)(O)O)C(C)C)[C@@H](C)O)[C@@H](C)CC)C(=O)N[C@@H](Cc1ccccc1)C(=O)N[C@@H](CCC(N)=O)C(=O)N[C@@H](C)C(=O)N1CCC[C@H]1C(=O)N[C@H](C(=O)N[C@@H](CC(C)C)C(=O)N[C@@H](Cc1c[nH]c2ccccc12)C(=O)O)[C@@H](C)O [CD1 pT461] (Biotin-VQATPSKVQPSP[pT]VHTKEALGFI[Nle]N[Nle]FQAPTLW-OH; C-terminus assumed)
- KD: the same affinity towards phosphorylated CD1 as wild type Mad1
